# Measured values taken from patent US20090018157A1, “Chemical compounds” (priority 2003, published 2009).
# What was measured:
# [1] = Plasma protein binding by equilibrium dialysis; format: in vitro ADME; conditions: rat, 18 hours at 37° C., plasma vs isotonic phosphate buffer pH 7.4, read-out: % free in plasma
# Method: The plasma protein binding of compounds was measured using the equilibrium dialysis technique (W. Lindner et al, J. Chromatography, 1996, 677, 1-28). Compound was dialysed at a concentration of 20 μM for 18 hours at 37° C. with plasma and isotonic phosphate buffer pH 7.4 (1 ml of each in the dialysis cell). A Spectrum® 20-cell equilibrium dialyser was used together with Teflon, semi-micro dialysis cells and Spectra/Por®2 membrane discs with a molecular weight cut off 12-14000 Dalton, 47 mm (supplied by PerBio Science UK Ltd, Tattenhall, Cheshire). Plasma and buffer samples are removed following dialysis and analysed using HPLCUV/MS (high performance liquid chromatography with UV and mass spec detection) to give the % free level in plasma.
# [2] = Plasma levels following oral administration to rats; format: in vivo; conditions: rat, normalised dose of 1 mg of compound per kilogram of rat body weight
# Method: Planetary Milled compounds [15 mins, 500 rpm, 5 Zirconium Balls, in a Puluerisette 7 Mill (Glen Creston Ltd, Stanmore, Middlesex, UK)] were suspended in 0.5% HPMC Tween and dosed to High Fat Fed (Research Diets, D12451, ad lib feeding 14 days) Female Alderley Park Zucker or Alderley Park Wistar rats at rate of 5 mls/kg, at doses between 0.3 and 10 mg/kg by oral gavage.
# Samples of plasma were obtained either by conscious blood sampling or terminal blood sampling as follows:
# Conscious blood sampling (for compound level or blood chemistry)—Intravenous blood samples were taken from tail vein using 600 μl Starstedt Multivette (EDTA) and 22 G needle at the required time point. […]
# The reconstituted samples were then analysed using high performance liquid chromatography with tandem mass spectrometry detection (HPLC-MS-MS)”. […]
# The concentration of test samples was determined from the ratio of the peak height of the test sample to the peak height of the internal standard. The concentration of the test sample was calculated with reference to a standard curve relating the ratio to the concentration prepared by using known concentrations of test sample added to samples of rat plasma using (3-isopropoxy-5-benzyoxy-benzoyl)amino pyridine 3-carboxylic acid as an internal standard, treated as described above.
# [3] = Estimation of plasma half-life; format: in vivo; conditions: rat, typically determined following intravenous administration, read-out: t½ (half life in plasma) (converted)
# Description: The plasma half-life is the time taken for the concentration of compound in the plasma to decline to half of its original value. This is typically determined following intravenous administration of the test compound, followed by measurement of the compound concentrations in plasma samples as described above. The plasma half-life is estimated from a semilogarithmic plot, plotting the log of the plasma concentration (lnCp) against sample time (t, linear). The apparent first-order elimination rate constant, k, is equal to the slope of the line, and the elimination half-life (t½) is […] (Gibaldi, M and Perrier, D, 1975 Pharmacokinetics, Marcel Dekker, New York): […]
# [4] = biological target: T1, glucokinase (GLK) (Homo sapiens, UniProt P35557); test: biochemical
# T1 sequence (P35557 1-466 isoform P35557-2): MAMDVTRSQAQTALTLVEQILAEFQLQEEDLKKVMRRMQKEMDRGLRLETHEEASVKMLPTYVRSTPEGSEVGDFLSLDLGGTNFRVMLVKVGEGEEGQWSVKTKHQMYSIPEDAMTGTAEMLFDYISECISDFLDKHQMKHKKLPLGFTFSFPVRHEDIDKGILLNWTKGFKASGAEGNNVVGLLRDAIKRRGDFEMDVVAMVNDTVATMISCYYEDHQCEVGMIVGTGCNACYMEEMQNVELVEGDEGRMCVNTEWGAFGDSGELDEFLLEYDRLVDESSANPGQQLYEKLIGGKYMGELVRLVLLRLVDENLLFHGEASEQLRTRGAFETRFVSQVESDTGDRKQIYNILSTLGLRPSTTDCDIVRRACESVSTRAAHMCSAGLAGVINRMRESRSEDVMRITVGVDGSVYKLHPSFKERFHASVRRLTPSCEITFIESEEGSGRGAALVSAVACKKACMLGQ
smiles,measurement,setting,value
"COC[C@H](C)Oc1cc(Oc2ccc3c(c2)OCO3)cc(C(=O)Nc2ccc(C(=O)O)cn2)c1 [Example 2, 6-{[(3-(1,3-benzodioxol-5-yloxy)-5-{[(1S)-1-methyl-2-(methyloxy)ethyl]oxy}phenyl)carbonyl]amino}pyridine-3-carboxylic acid]","fraction unbound at 18 hours, 20 μM",[1],0.0026
same,Peak Blood levels (including both bound and free),[2],2.7 µM
same,half-life,[3],6.4 h
same,EC50,[4],60 nM
